Data as given in US20250282720A1, “ALKYLSULFENYL THIOCARBONATES: PRECURSORS TO HYDROPERSULFIDES POTENTLY ATTENUATE OXIDATIVE STRESS” (The Johns Hopkins University, priority 2021, published 2025).

Legend:
[1] = Decomposition of precursors in the presence of thiol (NAC / N-acetyl cysteine methyl ester), HPLC; assay type: physicochemical; settings: 5 equiv NAC, PBS pH 7.4, HPLC
Protocol: Initially, the decomposition of 1a was analyzed in the presence of 5 equiv of N-acetylcysteine (NAC) in PBS (pH 7.4) by HPLC. […] To investigate the mechanism, this reaction was monitored by UPLC-MS. […] Additionally, a small amount of unsymmetrical dialkyl polysulfide (pink highlight, R^1SSnSR^2, n=0-3) is observed, likely formed via NAC reaction with symmetrical dialkyl polysulfides (Scheme 1-5, eq. 7). As expected, a new peak at 5.65 min corresponding to N-acetyl cysteine-thiocarbonate 9a also is observed, confirming thiol attack at the perthiocarbonate carbonyl carbon of 1a to release RSSH. Due to the unstable nature of RSSH under these experimental conditions, the yield of the by-product 9a was measured as an indication of RSSH yield. The observation of RSSH-derived polysulfides formation as major products led us to anticipate the efficient formation of by-product 9a. […] The lower observed yield of 9a is likely due to its further reaction with RSSH under these conditions. […]
To a solution of N-acetyl cysteine methyl ester (500 μM) in pH 7.4 phosphate buffer saline (100 mM) containing DTPA (100 μM), precursor 1a or 8 (100 μM) was added. […] At different time points, an aliquot of the reaction mixture (500 μL) was withdrawn and transferred to pre-cooled 0.1% formic acid (500 μL) and analyzed using HPLC. […]

[2] = tested on: FA skin fibroblasts (GM04078); assay: Cytotoxicity in FA skin fibroblasts; settings: 24 h of exposure, at least up to 100 μM
Excerpt: (§1) Initially, we measured the cytotoxicity of AST in FA skin fibroblasts (GM04078), obtained from the Coriell Institute, to ensure that the RSSH donor itself is not cytotoxic. […] We then measured the ability of AST to confer cytoprotection in FA fibroblasts against hydrogen peroxide (H2O2) stress.

H9c2 cardiac myoblasts [3] = assay: Cytotoxicity study, Sytox Green viability assay; settings: up to 100 mM, 24 h
Protocol: (§2) H9c2 embryonic rat heart myoblasts were obtained from the American Type Culture Collection. Cells were grown in Dulbecco's minimal essential medium (DMEM), supplemented with fetal bovine serum (FBS) 10%, penicillin 100 U/mL and streptomycin 100 μg/mL. They were propagated in T75-flasks, split before reaching 70-80% confluence (usually every day or every second day), and used within 11 passages. Cells were passaged to tissue culture treated 96-well microtiter plates at the specified density in 180 μL volumes and incubated for 24 h.
Cells were seeded at a density of 1×10^4 cells/well. After 24 h, the media was replaced and compound added in 20 μL volumes using DMSO:H2O (<0.01% DMSO) as the vehicle. Cells were incubated for an additional 24 h before media was removed. Then, 100 μL of media containing 3 μM Sytox Green nucleic acid stain (Invitrogen) was added and the cells were incubated for 2 h before fluorescence readings were obtained at 485Ex/538Em (Step 1). Finally, an additional 100 μL of media containing 3 μM Sytox and 0.2% Triton X-100 was added to permeabilize all cells and incubated for 1 h before fluorescence values measured (Step 2). The relative % cells surviving was calculated as a 100% minus the ratio of the fluorescence value of Step 1 over Step 2 (% cells surviving=100%−(FL538 (Step 1)/FL538 (Step 2)). See FIG. 8.

H9c2 cardiac myoblasts [4] = assay: H9c2 cell protection from H2O2-mediated oxidative stress, CCK-8; assay type: cell-based, rat; settings: 50 μM, 4 and 8 h, then H2O2 200 μM
Protocol: The cytoprotective effects of 1a was then measured against oxidative stress.
as §2
Cells were seeded at a density of 5×10^3 cells/well. After 24 h, precursor 1a or by-product 4a was added at 20 μL volumes using DMSO:H2O (<0.01% DMSO as the vehicle). Cells were incubated for 2 h before media was removed and the cells gently washed with PBS (pH 7.4). Then, 180 μL of fresh media and 20 μL H2O2 diluted into H2O were added and cells were incubated for an additional 2 h. At the completion of H2O2 exposure, each well is carefully washed 3 times with PBS (pH 7.4) before adding 100 μL of media, without-FBS, containing 10% v/v CCK-8 (Dojindo) and incubated for 3 h prior to obtaining absorbance values at 450 nm. The relative % viability was calculated as 100 times the ratio of the Abs450 (pre-treated, H2O2-exposed) over Abs450 (vehicle-treated, non H2O2-exposed).

FA fibroblasts (GM04078) = assay: Cytoprotection against H2O2 stress in FA fibroblasts, CCK8; assay type: cell-based, human; settings: 4 h pretreatment, H2O2 75 μM for 4 h
Protocol: FIG. 10A, pretreatment of AST with varying concentrations in FA fibroblasts (GM04078, Coriell Institute) for 4 h followed by 4 h treatment with H2O2. Viability was measured using CCK8 assay. FIG. 10B, pretreatment of AST with varying concentrations in FA fibroblasts for 4 h followed by treatment with erastin for 24 h. […] Group comparisons are determined by a one-way analysis of variance (ANOVA) with Dunnet's correction post-hoc test using GraphPad Prism 8;
as §1

SMILES | t1/2 of decomposition in the presence of thiol [1] | toxicity toward FA fibroblasts [2] | toxicity toward H9c2 cells (H9c2 cardiac myoblasts [3]) | cytoprotection against H2O2-mediated toxicity (by-product control) (H9c2 cardiac myoblasts [4]) | cytoprotection against H2O2 stress (FA fibroblasts (GM04078))
COC(=O)C(NC(C)=O)C(C)(C)SSC(=O)OCc1ccccc1 (centres unmarked) [Precursor 8, Methyl 2-acetamido-3-(((benzyloxy)carbonyl)disulfaneyl)-3-methylbutanoate] | 4.0 ± 0.7 min | – | – | – | –
Oc1ccccc1 [Precursor 4a, phenol] | – | do not show toxicity | no toxicity | no protective effect | ineffective
